Test results reported in PubChem BioAssay AID248 (DTP/NCI, 2004).
Inconclusive results and toxic doses are left out. Cut-off read from the data, not from the text of the source: active = T/C of 150% or more; inactive = T/C below 125%.

Test system: L1210 leukemia ip in BDF1 mice, survival T/C
Experiment: NCI In Vivo Anticancer Drug Screen. Data for tumor model L1210 Leukemia (intraperitoneal) in B6D2F1 (BDF1) mice
Details: endpoint: mean survival time, higher = longer survival
Method in brief: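 Tumor was transplanted into mice, which were then dosed with test compound or vehicle alone. Survival was recorded for each group, and the treated figure was expressed relative to the control figure.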

[1] = dose: 100.0 mg/kg/injection, schedule: Q04DX003 (ip), vehicle: saline with Tween-80
[2] = dose: 200.0 mg/kg/injection, schedule: Q04DX003 (ip), vehicle: saline with Tween-80

Measured: T/C

Cc1ccc(S(=O)(=O)SS(=O)(=O)c2ccc(C)cc2)cc1
inactive: dose: 100.0 mg/kg/injection, schedule: Q04DX002 (ip), vehicle: saline with Tween-80 90 % of control | dose: 200.0 mg/kg/injection, schedule: Q04DX002 (ip), vehicle: saline with Tween-80 90 % of control | dose: 400.0 mg/kg/injection, schedule: Q04DX002 (ip), vehicle: saline with Tween-80 90 % of control

O=C1OC(c2ccc3c(c2)OCO3)C(C(=O)CCl)c2ccccc21 (centres undefined)
inactive: [1] 97 % of control | [2] 93 % of control

O=S(=O)(NO)c1ccc(Cl)cc1
inactive: dose: 50.0 mg/kg/injection, schedule: Q01DX009 (ip), vehicle: saline sonified 98 % of control | dose: 100.0 mg/kg/injection, schedule: Q01DX009 (ip), vehicle: saline sonified 91 % of control | dose: 100.0 mg/kg/injection, schedule: Q04DX003 (ip), vehicle: saline 98 % of control | dose: 200.0 mg/kg/injection, schedule: Q01DX009 (ip), vehicle: saline sonified 95 % of control | dose: 200.0 mg/kg/injection, schedule: Q04DX003 (ip), vehicle: saline 94 % of control

CC(C)NC(=O)N(c1ccccc1)c1ccccc1
inactive: dose: 100.0 mg/kg/injection, schedule: Q01DX009 (ip), vehicle: gum acacia 104 % of control | dose: 100.0 mg/kg/injection, schedule: Q04DX003 (ip), vehicle: gum acacia 97 % of control | dose: 200.0 mg/kg/injection, schedule: Q01DX009 (ip), vehicle: gum acacia 111 % of control | dose: 200.0 mg/kg/injection, schedule: Q04DX003 (ip), vehicle: gum acacia 100 % of control | dose: 400.0 mg/kg/injection, schedule: Q01DX009 (ip), vehicle: gum acacia 101 % of control | dose: 400.0 mg/kg/injection, schedule: Q04DX003 (ip), vehicle: gum acacia 99 % of control

O=P1(c2ccccc2)CCc2[nH]c3ccc(F)cc3c2C1 (centres undefined)
inactive: dose: 100.0 mg/kg/injection, schedule: Q01DX001 (ip), vehicle: Klucel (hydroxypropylcellulose) (HPC) 97 % of control | dose: 200.0 mg/kg/injection, schedule: Q01DX001 (ip), vehicle: Klucel (hydroxypropylcellulose) (HPC) 100 % of control | dose: 400.0 mg/kg/injection, schedule: Q01DX001 (ip), vehicle: Klucel (hydroxypropylcellulose) (HPC) 98 % of control

CCN(CC)CC(Cl)CN(CC)CC
inactive: dose: 50.0 mg/kg/injection, schedule: Q01DX009 (ip), vehicle: saline with Tween-80 104 % of control | dose: 100.0 mg/kg/injection, schedule: Q01DX009 (ip), vehicle: saline with Tween-80 87 % of control | [1] 97 % of control | [2] 88 % of control

CS(=O)(=O)Nc1nc2ccccc2[nH]1
inactive: dose: 50.0 mg/kg/injection, schedule: Q01DX009 (ip), vehicle: saline 96 % of control | dose: 100.0 mg/kg/injection, schedule: Q01DX009 (ip), vehicle: saline 93 % of control | dose: 200.0 mg/kg/injection, schedule: Q01DX009 (ip), vehicle: saline 86 % of control

NC(=O)NC1CCCC1
inactive: [1] 93 % of control | [2] 89 % of control | dose: 400.0 mg/kg/injection, schedule: Q04DX003 (ip), vehicle: saline with Tween-80 93 % of control

COC1=NS(=O)(=O)C(C)C(C)(C)O1 (centres undefined)
inactive: dose: 100.0 mg/kg/injection, schedule: Q04DX002 (ip), vehicle: Klucel (hydroxypropylcellulose) (HPC) 100 % of control | dose: 200.0 mg/kg/injection, schedule: Q04DX002 (ip), vehicle: Klucel (hydroxypropylcellulose) (HPC) 120 % of control | dose: 400.0 mg/kg/injection, schedule: Q04DX002 (ip), vehicle: Klucel (hydroxypropylcellulose) (HPC) 100 % of control

C1CCN(c2c3c(nc4nnnn24)CCC3)CC1
inactive: dose: 5.0 mg/kg/injection, schedule: Q01DX001 (ip), vehicle: other 98 % of control | dose: 10.0 mg/kg/injection, schedule: Q01DX001 (ip), vehicle: other 96 % of control | dose: 20.0 mg/kg/injection, schedule: Q01DX001 (ip), vehicle: other 98 % of control | dose: 40.0 mg/kg/injection, schedule: Q01DX001 (ip), vehicle: other 110 % of control | dose: 80.0 mg/kg/injection, schedule: Q01DX001 (ip), vehicle: other 96 % of control | dose: 100.0 mg/kg/injection, schedule: Q01DX001 (ip), vehicle: other 96 % of control | dose: 200.0 mg/kg/injection, schedule: Q01DX001 (ip), vehicle: other 96 % of control
